Entries after “also recorded” stand apart in the source; their conditions may differ. Values belong to the compound of their own block, whether it stands above or below them.
How the values were obtained:
Type in all cases: cell-based
VIPR2 [1] = biological target: T1, VIPR2 (Homo sapiens, UniProt P41587); experiment: Inhibition of VIP-induced β-arrestin recruitment (% Activity)
T1 construct: expressed in transfected cells
T1 sequence (P41587 24-438): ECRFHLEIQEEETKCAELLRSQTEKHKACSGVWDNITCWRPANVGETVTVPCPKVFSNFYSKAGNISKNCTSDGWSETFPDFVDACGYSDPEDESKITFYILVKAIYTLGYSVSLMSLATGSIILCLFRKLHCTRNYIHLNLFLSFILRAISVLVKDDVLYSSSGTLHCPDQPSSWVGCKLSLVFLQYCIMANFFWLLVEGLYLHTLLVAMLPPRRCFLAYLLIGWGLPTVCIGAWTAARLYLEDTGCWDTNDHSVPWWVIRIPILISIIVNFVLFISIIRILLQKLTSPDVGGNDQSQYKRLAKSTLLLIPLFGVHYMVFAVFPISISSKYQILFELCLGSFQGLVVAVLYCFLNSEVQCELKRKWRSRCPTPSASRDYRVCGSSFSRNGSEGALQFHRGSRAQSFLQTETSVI
From the text: In a further non-limiting embodiment of the invention, the ability of a compound to inhibit VIPR2 GPCR activity may be tested, for example, using the PathHunter® eXpress 3-Arrestin GPCR system (Discoverx Corporation, Fremont, Calif., US), as used by Chu et al., 2010, Molecular Pharmacol. 7795-101. In this assay, J-Arrestin is fused to the “Enzyme Acceptor” (“EA”), an N-terminal deletion mutant of β-gal, and the GPCR of interest is fused to a smaller (42 amino acids), weakly complementing portion of the β-gal enzyme (termed “ProLink™”). In cells that stably express these fusion proteins, the interaction of β-Arrestin and the GPCR following ligand stimulation forces the complementation of the two β-gal fragments resulting in the formation of a functional enzyme that converts substrate to detectable signal. In the absence of an interaction between the GPCR and β-Arrestin, the enzyme activity is low due to the low affinity of the two enzyme fragments. For example, a nucleic acid encoding VIPR2, for example hVIPR2, may be cloned into the ProLink vector (DiscoveRx) for GPCR-ProLink fusion protein production. Parental HEK293 cells that stably express β-arrestin2-β-gal-EA fusion protein (DiscoveRx) may be detached and transiently transfected with the VIPR2-containing vector using Fugene6 transfection reagent in suspension mode. Transfected cells in assay medium may be plated into test plates, for example at 15,000 cells/25 μl/well. After overnight incubation, 500 n1 of an inhibitor or test inhibitor may be introduced into the test plate followed by 2 h incubation at 37° C., 5% CO2. Flash detection reagents may be added at 12.5 μl/well. After 5 min to 1 h of room-temperature incubation, the cell plates may be read on CLIPR (PerkinElmer Life and Analytical Sciences) or Acquest (Molecular Devices, Sunnyvale, Calif.) for luminescence signal.
(§1) A series of compounds were prepared using a synthetic method analogous to that set forth in Scheme 1, above, and then tested for their ability to inhibit VIP-induced cAMP elevation and β-arrestin recruitment.
(§2) A series of compounds were prepared using a synthetic method analogous to that set forth in Scheme 1, above, and then tested for their ability to inhibit VIP-induced cAMP elevation and β-arrestin recruitment, as described herein (Discoverx Corporation, Fremont, Calif., US). Compound activities were also tested in a BRET-based assay, as described herein. The results are shown below in Tables 1-4, above.

VIPR2 [2] = biological target: T1, VIPR2; experiment: BRET-based VIPR2 activation assay (CAMYEL cAMP sensor, CHO cells, VIP background); details: for IC50: Table 3, read-out: IC50 (from BRET)
Description: FIG. 5A-B. Results of BRET-based VIPR2 activation assays in cells expressing both the VIPR2 receptor and CAMYEL (see FIG. 1A for schematic). a) Inhibitory dose-response curves on treatment of CHO cells with increasing concentrations of a batch of antagonists against a background of VIP activation (VIP=5 nM).
In such a system, a detector cell is used which expresses both the VIPR2 receptor and “CAMYEL,” a YFP-Epac-RLuc8 BRET sensor construct. This construct includes Epac1, a guanine nucleotide exchange factor activated by direct binding of cAMP, fused with an enhanced YFP and Renilla luciferase 8 (Rluc8) allowing BRET upon cAMP-induced conformational changes (Jiang et al., 2007, J Biol Chem. 282:10576-10584). In response to elevated cAMP levels, there is a conformational change in Epac and therefore a change in the proximity of the fused chromophores, Rluc8 and YFP, resulting in measurable energy transfer. Coexpression of this BRET construct with VIPR2. optionally tagged at the N-terminus with a signal peptide and FLAG epitope (SF-VIPR2), for example in HEK293 cells, allows for detection of a VIPR2-specific response to cAMP. BRET readout may be calculated by quantifying the ratio of the light emitted by the acceptor, YFP (λ=525 nm), over the emission from the donor, RLuc8 (λ=485 nm). The proximity of the donor and acceptor, and therefore the BRET ratio, decreases in the presence of cAMP. In non-limiting specific embodiments, a stable cell line may be generated for this assay using the Flp-In T-Rex system in HEK293 cells. This system allows site-specific single copy integration of the gene of interest and control of expression levels using the Tet-repressor site making receptor expression tetracycline-inducible. For example, a CAMYEL and VIPR2 expressing line may be induced with 0.01 μg/ml tetracycline, then, 24 hours later cells may be collected and distributed into 96-well plates. After treatment with candidate inhibitor compound, for example at 5, 1 and 0.5 μM concentrations, cells may be incubated with the light emitting luciferin, coelenterazine H, for 5 min and incubated for 5 min with VIP at increasing concentrations, for example ranging from 100 pM to 10 μM. The fluorescence and luminescence may then be quantified, for example using a PHERAstar (BMG) plate reader. […] Alternatively, analogous experiments may be performed using human cells harvested from a patient having a VIPR2 copy number variation, for example (but not by way of limitation) pluripotent stem cells prepared from such a patient and then transfected with a CAMYEL construct.
as §2
Numerous cellular assays were developed that were able to detect VIP responses absent of interference from non-specific vasopressin receptors using this CHO based system. VIPR2 is a Gs coupled receptor. Activation of VIPR2 by VIP leads to both an elevation in cAMP signaling and the recruitment of β-arrestin. A variety of combinations can be transiently transfect into these CHO cells for the assessment of cellular responses to VIP. For the BRET readout CHO cell lines expressing an YFP-Epac-RLuc8 (CAMYEL) BRET sensor were used to detect changes in cAMP. This construct includes Epac1, a guanine nucleotide exchange factor activated by direct binding of cAMP, fused to an enhanced YFP and RLuc8 allowing a change in BRET upon cAMP-induced conformational changes. The key for medium to high throughput screening assays is the use of stable cell lines allowing the continuous assaying of multiple compounds with the ability to generate large numbers of cells for rapid use. […]

VIPR2 [3] = biological target: T1, VIPR2; experiment: Inhibition of VIP-induced cAMP elevation (% Activity)
From the text: In a further non-limiting embodiment of the invention, the ability of a compound to inhibit VIPR2 and […] may be measured using a Homogeneous Time-Resolved Fluorescence (“HTRF® assay; Cisbio Bioassays) as used in Chu et al., 2010, Molecular Pharmacol. 7795-101. In a method as used in Chu et al., 2010, Molecular Pharmacol. 7795-101, HEK293 cells may be transfected with nucleic acid encoding VIPR2, for example human VIPR2 (“hVIPR2”), for example comprised in a vector such as pCDNA3.1 vector. Successful transformnnants may then be selected, for example using 800 μg/ml G418. Clonal stable cell lines may then be generated by limited dilution to single cells and then may be clonally expanded and tested for VIP-dependent cAMP response. For the cAMP assay, about 3000-15,000 cells (in about 4-25 μl) may be placed in a well of an assay plate. The next day, inhibitor or test inhibitor and VIP may be added in a volume about 1-2 percent of the initial volume. Assay plates may then be returned to a cell incubator for 30 min before addition of a one-half volume of cAMP conjugate and, relative to the amount of cAMP conjugate, an equal volume of anti-cAMP conjugate (Cisbio). After at least 1 h of room-temperature incubation, HTRF signal may be read, for example using Viewlux or EnVision (PerkinElmer Life and Analytical Sciences, Waltham, Mass.). The ratio of […] at 665 nm and 620 nm times 10,000 may be calculated and plotted.
as §1, §2

IC50 (VIPR2 [2]): 13.3 µM
Structure (SMILES): Cc1ccc(S(=O)(=O)NC[C@@H](O)C[C@@H](Cc2ccccc2)C(=O)N[C@H]2c3ccccc3C[C@H]2O)cc1C [Compound X116]

IC50 (VIPR2 [2]): 45.8 µM
Structure (SMILES): CCC(C)Oc1ccc(S(=O)(=O)NC[C@@H](O)C[C@@H](Cc2ccccc2)C(=O)N[C@H]2c3ccccc3C[C@H]2O)cc1 (stereo partly shown) [Compound X120]

IC50 (VIPR2 [2]): 4.2 µM
Structure (SMILES): CCCc1ccc(S(=O)(=O)NC[C@@H](O)C[C@@H](Cc2ccccc2)C(=O)N[C@H]2c3ccccc3C[C@H]2O)cc1 [Compound X113]

IC50 (VIPR2 [2]): 152 µM
Structure (SMILES): O=C(N[C@H]1c2ccccc2C[C@H]1O)[C@H](Cc1ccccc1)C[C@H](O)CNS(=O)(=O)c1ccc(OC(F)(F)F)cc1 [Compound X112]

IC50 (VIPR2 [2]): 13.3 µM
Structure (SMILES): CS(=O)(=O)c1ccc(S(=O)(=O)NC[C@@H](O)C[C@@H](Cc2ccccc2)C(=O)N[C@H]2c3ccccc3C[C@H]2O)cc1 [Compound X111]

IC50 (VIPR2 [2]): 4.2 µM
Structure (SMILES): CCCOc1ccc(S(=O)(=O)NC[C@@H](O)C[C@@H](Cc2ccccc2)C(=O)N[C@H]2c3ccccc3C[C@H]2O)cc1 [Compound X118]

inhibition at 0.5 µM (VIPR2 [1]; Batch 3): 3.4%
Structure (SMILES): CCC(=O)Nc1ccc(S(=O)(=O)NC[C@@H](O)C[C@@H](Cc2ccccc2)C(=O)N[C@H]2c3ccccc3C[C@H]2O)cc1 [Compound X091]

IC50 (VIPR2 [2]): 152 µM
Structure (SMILES): CCC(C)c1ccc(S(=O)(=O)NC[C@@H](O)C[C@@H](Cc2ccccc2)C(=O)N[C@H]2c3ccccc3C[C@H]2O)cc1 (stereo partly shown) [Compound X117]

inhibition at 0.5 µM (VIPR2 [3]; Batch 3): -5.3%
Structure (SMILES): O=C(N[C@H]1c2ccccc2C[C@H]1O)[C@H](Cc1ccccc1)C[C@H](O)CNS(=O)(=O)c1ccc(C(=O)N2CCCCC2)cc1 [Compound X101]

Second part, the compound before the results:

Structure (SMILES): O=C([C@@H](Cc1ccccc1)C[C@H](O)CNS(=O)(=O)c1ccc([N+](=O)[O-])cc1)N1CCCCC1 [Compound B18B]
inhibition at 0.5 µM (VIPR2 [1]; Batch 2): 9.5%

Structure (SMILES): O=C(N[C@H]1c2ccccc2C[C@H]1O)[C@H](Cc1ccccc1)C[C@H](O)CNS(=O)(=O)c1ccc(C(F)(F)F)cc1 [F]
VIPR2 inhibition in BRET-based assay, in words (VIPR2 [2]; compared with Compound 1 or other compounds (FIG. 1C, FIG. 5B)): greater activity than Compound 1; also recorded: greater effect on VIPR2 inhibition than Compound 1

Structure (SMILES): COc1cc(C(=O)NC[C@@H](O)C[C@@H](Cc2ccccc2)C(=O)N[C@H]2c3ccccc3C[C@H]2O)cc(OC)c1OC [H]
inhibition at 1 µM (VIPR2 [1]; 1 μM, Batch 1): 3.2%

Structure (SMILES): O=C([C@@H](Cc1ccccc1)C[C@H](O)CNS(=O)(=O)c1ccc([N+](=O)[O-])cc1)N1CCOCC1 [Compound B9B]
inhibition at 1 µM (VIPR2 [3]; 1 μM, Batch 2): -10.4%

Structure (SMILES): O=C(NC1CCCc2ccccc21)[C@@H](Cc1ccccc1)C[C@H](O)CNS(=O)(=O)c1ccc([N+](=O)[O-])cc1 (stereo partly shown) [Compound B13B]
% activity (β-arrestin recruitment) at 1 µM (VIPR2 [1]; 1 μM, Batch 2): 5.9%

Structure (SMILES): O=C([C@H](Cc1ccccc1)C[C@H](O)CNS(=O)(=O)c1ccc([N+](=O)[O-])cc1)N1CCOCC1 [Compound B9A]
inhibition at 0.5 µM (VIPR2 [3]; Batch 2): 3.8%

Structure (SMILES): O=C(N[C@H]1c2ccccc2C[C@H]1O)[C@H](Cc1ccccc1)C[C@H](O)CNS(=O)(=O)c1ccc([N+](=O)[O-])cc1 [Compound 1, reference compound]
shift of VIP dose-response curve (VIPR2 [2]; increasing doses of compound (FIG. 1C)): rightward shift
